Laboratory results: patent US6413764B1, “Human metabotropic glutamate receptors, nucleic acids encoding same and uses thereof” (Merck & Co., Inc., priority 1993, dated 2002)
Read-outs that look alike come from different tables or passages of the source.

Tests used:
human mGluR5a receptor [1] = molecular target: T1, human mGluR5a receptor (Homo sapiens, UniProt P41594); test: Two-electrode voltage clamp of Xenopus oocytes injected with mGluR5a3 transcripts; format: cell-based; conditions: for transmembrane currents after application of the compound: oocytes injected with mGluR5a3 transcripts, 0.001-0.1 μM quisqualate, 0.1-10 μM glutamate, 0.1-300 μM 1S,3R-ACPD, clamped at −80 to −100 mV; for dose-response of current magnitude: varying amounts of each compound, mGluR5a3 transcripts
T1 sequence (P41594 21-1180 isoform P41594-2 limits assumed): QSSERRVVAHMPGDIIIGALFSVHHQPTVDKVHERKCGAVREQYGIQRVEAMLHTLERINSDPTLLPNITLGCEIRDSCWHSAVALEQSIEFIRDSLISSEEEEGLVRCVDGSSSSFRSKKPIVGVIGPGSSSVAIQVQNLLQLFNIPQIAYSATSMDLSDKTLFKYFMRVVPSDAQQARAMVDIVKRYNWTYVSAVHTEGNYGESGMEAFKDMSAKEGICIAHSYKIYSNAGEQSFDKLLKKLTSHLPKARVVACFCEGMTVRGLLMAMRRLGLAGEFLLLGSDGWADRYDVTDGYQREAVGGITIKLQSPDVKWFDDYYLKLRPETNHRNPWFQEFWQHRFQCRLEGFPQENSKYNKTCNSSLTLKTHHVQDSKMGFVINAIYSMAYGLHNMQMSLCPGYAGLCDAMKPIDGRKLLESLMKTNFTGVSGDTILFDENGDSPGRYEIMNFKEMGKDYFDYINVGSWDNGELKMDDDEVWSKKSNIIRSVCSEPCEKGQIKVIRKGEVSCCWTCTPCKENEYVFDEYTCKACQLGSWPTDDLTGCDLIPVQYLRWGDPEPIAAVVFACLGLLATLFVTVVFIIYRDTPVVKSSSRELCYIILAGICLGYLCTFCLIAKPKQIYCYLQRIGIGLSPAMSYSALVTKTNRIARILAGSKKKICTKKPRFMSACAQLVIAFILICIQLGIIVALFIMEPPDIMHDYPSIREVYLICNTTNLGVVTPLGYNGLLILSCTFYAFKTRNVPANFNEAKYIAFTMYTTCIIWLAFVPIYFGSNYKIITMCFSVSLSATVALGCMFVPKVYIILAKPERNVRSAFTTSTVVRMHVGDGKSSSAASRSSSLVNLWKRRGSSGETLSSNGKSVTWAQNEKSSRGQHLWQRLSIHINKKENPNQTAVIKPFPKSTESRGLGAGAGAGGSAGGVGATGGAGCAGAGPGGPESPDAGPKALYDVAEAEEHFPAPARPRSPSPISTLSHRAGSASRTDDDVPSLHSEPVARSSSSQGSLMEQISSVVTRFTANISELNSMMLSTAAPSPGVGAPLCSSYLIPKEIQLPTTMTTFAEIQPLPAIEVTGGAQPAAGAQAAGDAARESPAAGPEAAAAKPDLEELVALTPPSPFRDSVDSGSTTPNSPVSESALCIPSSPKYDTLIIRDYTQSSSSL
Description: Xenopus oocytes were injected with in vitro transcripts prepared from constructs containing DNA encoding human metabotropic receptors. Electrophysiological measurements of the oocyte transmembrane currents were made using the two-electrode voltage clamp technique (see e.g., Stuhmer (1992) Meth. Enzymol. 207:319-339).
Recombinant capped transcripts of metabotropic receptor cDNAs contained in construct mGluR5a3 were synthesized from linearized plasmids using the Megascript Kit (Cat. #1334, Ambion, Inc., Austin, Tex.). The mass of each synthesized transcript was determined by UV absorbance and the integrity of each transcript was determined by electrophoresis through an agarose gel.
Xenopus oocytes were injected with 10-50 ng of metabotropic receptor transcripts per oocyte. The preparation and injection of oocytes were carried out as described by Dascal [(1987) Crit; Rev. Biochem. 22:317-387]. Two-to-six days following mRNA injection, the oocytes were examined using the two-electrode voltage clamp technique. The cells were bathed in Ringer's solution (115 mM NaCl, 2.5 mM KCl, 1.8 mM CaCl2, 10 mM HEPES, pH 7.3), and the membrane potential was clamped at −80 to −100 mV. Drugs were applied by pipetting 60 μl aliquots of drug-containing solution directly into the bath. Data were sampled at 2-5 Hz with a Labmaster data acquisition board in PC-386 using AXOTAPE version 1.2 (Axon Instruments, Foster City, Calif.) software. Data were exported to a laser printer or plotted using Sigmaplot version 5.0.
Metabotropic receptor-modulating compounds, i.e., 0.001-0.1 μM quisqualate, 0.1-10 μM glutamate and 0.1-300 μM 1S,3R-ACPD (1-amino-cyclopentyl-1,3-dicarboxylic acid), were applied to the bath and the transmembrane currents were recorded.

human mGluR5a receptor [2] = molecular target: T1, human mGluR5a receptor; test: Automated fluorescence assay (fluo-3) in transiently transfected HEK 293 cells; format: cell-based; design: expressed in transfected cells; host or cells: HEK 293 cells, transient CaPO4 transfection
Description: HEK 293 cells were transiently transfected with DNA encoding mGluR5a (constructs mGluR5a2 and mGluR5a3 and construct MMTV-hmGluR5a) receptors. Approximately 2×10^6 HEK cells were transiently transfected with 5-18 μg (or 0.18 μg in some transfections, see Example 3.C.2.) of the indicated plasmid according to standard CaPO4 transfection procedures [see Wigler et al. (1979) Proc. Natl. Acad. Sci. USA 76:1373-1376]. In addition, 0.5-2 μg (or 0.18 μg in some transfections, see Example 3.C.2) of plasmid pCMVβgal (Clontech Laboratories, Palo Alto, Calif.), which contains the Escherichia coli β-galactosidase gene fused to the CMV promoter, were co-transfected as a reporter gene for monitoring the efficiency of transfection. The transfectants were analyzed for β-galactosidase expression by direct staining of the product of a reaction involving β-galactosidase and the X-gal substrate [Jones (1986) EMBO 5:3133-3142]. Transfectants can also be analyzed for β-galactosidase expression by measurement of β-galactosidase activity [Miller (1972) in Experiments in Molecular Genetics, pp.352-355, Cold Spring Harbor Press].
HEK 293 cells that were transiently transfected with 5 μg of MMTV-hmGluR5A were co-transfected with 5 μg of pRShGR (ATCC accession no. 67200) which contains DNA encoding a glucocorticoid receptor operatively linked to the Rous Sarcoma virus (RSV) LTR promoter. Co-expression of glucocorticoid receptors in these cells should insure that induction of expression of the MMTV promoter-mGluR5a DNA occurs upon addition of glucocorticoid (e.g., dexamethasone) to the cells.
Untransfected HEK 293 cells (or HEK 293 cells transiently transfected with pCMV-T7-3) and HEK 293 cells that had been transfected with mGluR5a-encoding DNA were plated in the wells of a 96-well microtiter dish (Nunc Catalog No. 1-6708, distributed by Alameda Industries, Escondido, Calif.) that had been precoated with poly-L-lysine at a density of 2×10^5 cells/well and loaded with fluo-3 by incubation for 2 hours at 20° C. in a medium containing 20 μM fluo-3, 0.2% Pluronic F-127 in HBS (125 mM NaCl, 5 mM KCl, 1.8 mM CaCl2, 0.62 MM MgCl2, 20 mM glucose, 20 mM HEPES, pH 7.4). The cells were then washed with assay buffer (i.e. HBS). The microtiter dish was then placed into a fluorescence plate reader (e.g., Fluoroskan II, Lab Products International, Ltd., Raleigh, N.C.), and the basal fluorescence of each well was measured and recorded before addition of metabotropic receptor-modulating compounds such as quisqualate, glutamate, trans-ACPD (1-amino-cyclopentane-1,3-dicarboxylic acid), 1S,3R-ACPD, AP3 (2-amino-3-phosphonopropionate) AP5 (2-amino-5-phosphonopentanoate), and CNQX (6-cyano-7-nitroquinoxaline-2,3-dione) to the wells. The fluorescence of the wells was monitored repeatedly (75 readings at 0.63-sec intervals) following addition of agonist.

[3] = HEK 293 transiently transfected with mGluR5a3 or MMTV-hmGluR5a, fluo-3
[4] = cells transfected with mGluR5a3, varying amounts of compound

| Compound | transmembrane currents after application of the compound (human mGluR5a receptor [1]) | dose-response of current magnitude (human mGluR5a receptor [1]) | fluorescence change in response to application of compound (human mGluR5a receptor [2]; [3]) | dose-response of peak fluorescence (human mGluR5a receptor [2]; [4]) | dose-response of peak fluorescence (human mGluR5a receptor [2]) | fluorescence change in response to application of compound (human mGluR5a receptor [2]) | fluorescence change in response to compound (human mGluR5a receptor [2]) |
| --- | --- | --- | --- | --- | --- | --- | --- |
| NC1(C(=O)O)CCC(C(=O)O)C1 (stereo not drawn) [1S,3R-ACPD, 1-amino-cyclopentyl-1,3-dicarboxylic acid] | Significant currents were detected | current magnitude increased with increasing concentration | increased | magnitude of the peak fluorescence increased with increasing concentration |  |  |  |
| N[C@@H](CCC(=O)O)C(=O)O [glutamate] | Significant currents were detected | current magnitude increased with increasing concentration | increased | magnitude of the peak fluorescence increased with increasing concentration |  |  |  |
| N[C@@H](Cn1oc(=O)[nH]c1=O)C(=O)O [quisqualate] | Significant currents were detected | current magnitude increased with increasing concentration |  |  | magnitude of the peak fluorescence increased with increasing concentration | increased | increased |
